Assay results published in US20230310356A1, “COMPOSITION FOR PREVENTING, AMELIORATING, OR TREATING BRAIN DAMAGE AND MILD COGNITIVE IMPAIRMENT COMPRISING GLUTAMINE AS EFFECTIVE COMPONENT” (INDUSTRY-ACADEMIC COOPERATION FOUNDATION GYEONGSANG …, priority 2020, published 2023).
Entries after “also recorded” stand apart in the source; their conditions may differ.

How the values were obtained:
[1] = test system: stratum pyramidale CA1 in hippocampus; test: Morphological change in hippocampus (Nissl staining, width of stratum pyramidale CA1) after CIS and glutamine supplementation; assay type: in vivo, mouse; conditions: STR+Gln vs STR; glutamine 150 mg/kg of feed
Description: Control (CTL) is a group which received normal diet (common diet with nutritional balance) without any stress, CTL+Gln group is a normal diet group supplemented with glutamine (150 mg/kg of feed) and without any stress, STR is a normal diet group under stress, and STR+Gln group is a normal diet group supplemented with glutamine (150 mg/kg of feed) under stress. The stress group (STR) was individually brought by force to a restrainer for 2 hours every day (i.e., between 2 PM and 4 PM) so that the animals are applied with chronic immobilization stress for 15 days. Any morphological change in hippocampus caused by the application of chronic immobilization stress and glutamine supplementation was determined by brain tissue staining of hippocampal region. Specifically, a section (i.e., brain tissue specimen) obtained after mounting for 5 minutes in 0.1% cresyl violet which has been dissolved in 0.2% acetic acid followed by air-drying was stained. Stained section was washed, subsequently immersed for 30 seconds in 80% (v/v) ethanol, again immersed for 30 seconds in 90% (v/v) ethanol, and again immersed twice for 30 seconds in 95% (v/v) ethanol. It was again immersed twice for 30 seconds in 100% (v/v) ethanol for dehydration. […]

[2] = test system: ROS/RNS; test: ROS/RNS levels in plasma, PFC and hippocampus after CIS and glutamine supplementation; assay type: in vivo, mouse; conditions: STR+Gln vs STR
Description: Control (CTL) is a group which received normal diet (common diet with nutritional balance) without any stress, CTL+Gln group is a normal diet group supplemented with glutamine (150 mg/kg of feed) and without any stress, STR is a normal diet group under stress, and STR+Gln group is a normal diet group supplemented with glutamine (150 mg/kg of feed) under stress. The stress group (STR) was individually brought by force to a restrainer for 2 hours every day (i.e., between 2 PM and 4 PM) so that the animals are applied with chronic immobilization stress for 15 days. Fifty-one model animals of the second cohort, i.e., 12 to 13 animals per group, were not subjected to any behavior analysis but immediately sacrificed after completion of the last immobilization stress. Then, ROS/RNS levels in the plasma, PFC, and hippocampus were examined. Specifically, ROS/RNS was examined by using ROS/RNS assay kit (STA-347; Cell Biolabs, San Diego, CA, USA) and following the manufacturer's protocol. PFC and hippocampal tissues were subjected to tissue homogenization by using Bullert blender after adding glass beads to RIPA (radioimmunoprecipitation assay) buffer solution. After the ultrasonication for 2 minutes, they were centrifuged for 10 minutes at conditions including 4° C. and 12,000×g. Then, the measurement of fluorescence intensity using Tecan Infinite F200 PRO MicroReader was repeated 3 times.

[3] = test system: amyloid beta 42 (Aβ42); test: Aβ42 in neuronally derived blood exosome (NDE) by ELISA after glutamine diet; assay type: in vivo, mouse; conditions: female 3×TG-AD, 3×TG+Gln vs 3×TG, after test with 6-months old animals
Description: As an animal model for cognitive ability evaluation, a 7-weeks old 3×TG-AD female mouse (8 mice. model of Alzheimer's disease) and a C57BL/6 female mouse (10 mice, control) were selected. The animals of each type were divided into 2 groups, and each group was provided with regular animal feed (i.e., normal diet, ND) or glutamine feed (Gln). The glutamine diet group was allowed to consume the feed containing 150 mg glutamine/kg diet, from 2-months old stage to the end of test (i.e., 6 to 7-months old stage). Health state of the animal was checked by measuring, once a week, the bodyweight of the animal and food intake (FIG. 7A). After the cognitive ability test with 6-months old animals, the mouse was sacrificed using carbon dioxide and a change in neuronally derived blood exosome (NDE) protein was determined. Total exosomes were separated from serum, and, after a reaction for 1 hour with anti-CD171 antibody, they were reacted for 1 hour with streptavidin-fused magnetic beads. After that, elution was carried out using 0.05 M glycine-HCl (pH 3.0), and then addition of 1 M Tris-HCl (pH 8.0) was made. Analysis was then made by using amyloid beta 42 (Aβ42) mouse ELISA kit.

[4] = test system: normal mouse; test: Cognitive ability of normal mouse after oral administration of glutamine (Y-maze, ORT, OLT); assay type: in vivo
Description: To determine if there is also an effect of orally administered glutamine on improving the cognitive ability of a normal mouse, 2 hours later glutamine administration, any improvement in cognitive ability was examined. The cognitive ability was tested by using Y-maze for testing short-term memory and ORT and OLT (object location recognition test) for testing long-term memory. Y-maze: To a Y-shaped maze consisting of 3 arms that are spread at 120° angle from each other and designated as A, B, and C, respectively, a mouse was introduced. Then, the spontaneous alternation indicating an entrance into different arms, 3 times consecutively, was applied to the following Formula (4) and the calculation was made (FIG. 10A). Three consecutive spontaneous alternation=[(Number of consecutive entry into different arms)/(Total number of arm entries−2)]×100 Formula (4) ORT/OLT: ORT was carried out for 10 minutes as described above, and, 24 hours later, one of the objects was translocated to a new spot and the animal was allowed to explore again for 5 minutes (FIG. 10B).

[5] = test system: mouse with cognitive impairment caused by chronic immobilization stress (CIS); test: ORT-OLT after oral administration of glutamine following cognitive impairment caused by CIS; assay type: in vivo; conditions: 2 weeks CIS, then oral glutamine 45 mg/kg bodyweight/day for 1 week
Description: After the oral administration of glutamine following an occurrence of cognitive impairment that has been caused by chronic immobilization stress (CIS), the effect of treating cognitive impairment was examined. Two weeks after applying CIS, the cognitive ability was tested by ORT-OLT. After that, while orally administering glutamine for 1 week (45 mg glutamine/kg bodyweight/day), a change in cognitive ability was examined from Day 4 (i.e., ORT-OLT were carried out from Day 4 to Day 7).

[6] = oral glutamine, long-term memory, compared to the normal mouse

With `NC(=O)CC[C@H](N)C(=O)O` [glutamine] the “width of CA1-SP (stratum pyramidale CA1)” value [1] was “restored”, the “level of active oxygen/nitrogen species (ROS/RNS) in hippocampus” value ([2]; hippocampal tissue) was “lower level” and the “level of active oxygen/nitrogen species (ROS/RNS) in plasma” value ([2]; plasma) was “lower level”. The “level of active oxygen/nitrogen species (ROS/RNS) in PFC” value ([2]; prefrontal cortex) was “lower level”, the “Aβ42 in NDE (neuronally derived blood exosome)” value [3] was “statistically significant decrease; also recorded: suppressed” and the “spontaneous alternation of Y-maze test” value ([4]; 2 hours later glutamine oral administration, short-term memory) was “no difference”. For the same compound, the “cognitive ability in OLT” value [4, 6] was “more enhanced cognitive ability”, the “cognitive ability in ORT” value [4, 6] was “more enhanced cognitive ability” and the “cognitive ability in OLT” value [5] was “restored to the level of stress-free control group”. For the same compound, the “cognitive ability in ORT” value [5] was “restored to the level of stress-free control group”.
